# In ChEMBL document CHEMBL3885881, “DrugMatrix”:
# Species: Rattus norvegicus
# Assay type: toxicity, organism-based, Sprague-Dawley
# Details: in vivo, 0 mg/kg, 24 h, dose level Control, time 1 day, vehicle 100 % SALINE
# [1] = sc, tissue Blood, route mini-PUMP - SUBCUTANEOUS
# [2] = sc, tissue Plasma, route mini-PUMP - SUBCUTANEOUS
# [3] = iv, vehicle control, tissue Blood
# [4] = iv, vehicle control, tissue Plasma
# Description: DrugMatrix - Regimen: Single
smiles,measurement,setting,value
CNC[C@H](O)c1ccc(O)c(O)c1 [EPINEPHRINE],ABSOLUTE EOSINOPHIL,[1],26.17 CELLS/uL
same,ABSOLUTE LYMPHOCYTE,[1],10985.83 CELLS/uL
same,ABSOLUTE MONOCYTE,[1],234.5 CELLS/uL
same,ABSOLUTE SEGMENTED NEUTROPHIL,[1],1753.5 CELLS/uL
same,BASOPHIL,[1],0%
same,EOSINOPHIL,[1],0.17%
same,ERYTHROCYTE COUNT,[1],5.64 x10E6/uL
same,HEMOGLOBIN,[1],12.68 G/DL
same,LEUKOCYTE COUNT,[1],13 x10E3/uL
same,LYMPHOCYTE,[1],84.5%
same,MEAN CORPUSCULAR HEMOGLOBIN,[1],22.5 pg
same,MEAN CORPUSCULAR HEMOGLOBIN CONCENTRATION,[1],36.78 G/DL
same,MEAN CORPUSCULAR VOLUME,[1],61.18 fL
same,NEUTROPHIL,[1],13.5%
same,NUCLEATED RED BLOOD CELLS,[1],0.17 /100WBC
same,PLATELET COUNT,[1],679.17 x10E3/uL
same,ALANINE AMINOTRANSFERASE,[2],42.67 u/L
same,ALBUMIN,[2],3.77 G/DL
same,ALKALINE PHOSPHATASE,[2],291.17 u/L
same,ASPARTATE AMINOTRANSFERASE,[2],74.5 u/L
same,BLOOD UREA NITROGEN,[2],15.33 mg/dL
same,CARBON DIOXIDE,[2],30 mmol/L
same,CHLORIDE,[2],100.83 MEQ/L
same,CHOLESTEROL,[2],65.33 mg/dL
same,CREATININE,[2],0.15 mg/dL
same,LACTATE DEHYDROGENASE,[2],162.67 u/L
same,LIPASE,[2],8.5 u/L
same,PHOSPHORUS,[2],12.2 mg/dL
same,POTASSIUM,[2],5.73 MEQ/L
same,SODIUM,[2],144.7 MEQ/L
same,TOTAL BILIRUBIN,[2],0.15 mg/dL
same,TOTAL PROTEIN,[2],5.87 G/DL
same,URIC ACID,[2],1.93 mg/dL
CC(=O)[C@]1(O)Cc2c(O)c3c(c(O)c2[C@@H](O[C@H]2C[C@H](N)[C@H](O)[C@H](C)O2)C1)C(=O)c1ccccc1C3=O [IDARUBICIN],ABSOLUTE BASOPHIL,[3],280 cells/µL
same,ABSOLUTE EOSINOPHIL,[3],75 cells/µL
same,ABSOLUTE LYMPHOCYTE,[3],9060 cells/µL
same,ABSOLUTE MONOCYTE,[3],260 cells/µL
same,BASOPHIL,[3],2.17%
same,EOSINOPHIL,[3],0.62%
same,ERYTHROCYTE COUNT,[3],6.64 x10E6/uL
same,HEMATOCRIT,[3],42.6%
same,HEMOGLOBIN,[3],13.5 G/DL
same,LEUKOCYTE COUNT,[3],11.87 x10E3/uL
same,LYMPHOCYTE,[3],76.3%
same,MEAN CORPUSCULAR HEMOGLOBIN,[3],20.37 pg
same,MEAN CORPUSCULAR HEMOGLOBIN CONCENTRATION,[3],31.75 G/DL
same,MEAN CORPUSCULAR VOLUME,[3],64.17 fL
same,MONOCYTE,[3],2.1%
same,NEUTROPHIL,[3],16.75%
same,PLATELET COUNT,[3],1144.5 x10E3/uL
same,ALANINE AMINOTRANSFERASE,[4],42.75 u/L
same,ALBUMIN,[4],3.6 G/DL
same,ALKALINE PHOSPHATASE,[4],314.75 u/L
same,ASPARTATE AMINOTRANSFERASE,[4],66.5 u/L
same,BLOOD UREA NITROGEN,[4],14 mg/dL
same,CARBON DIOXIDE,[4],37.5 mmol/L
same,CHLORIDE,[4],108 MEQ/L
same,CHOLESTEROL,[4],74.25 mg/dL
same,CREATINE PHOSPHOKINASE,[4],271 u/L
same,CREATININE,[4],0.65 mg/dL
same,GLUCOSE,[4],171 mg/dL
same,LACTATE DEHYDROGENASE,[4],125.75 u/L
same,LIPASE,[4],27.5 u/L
same,PHOSPHORUS,[4],11.25 mg/dL
same,POTASSIUM,[4],6.72 MEQ/L
same,SODIUM,[4],153.5 MEQ/L
same,TOTAL BILIRUBIN,[4],0.23 mg/dL
same,TOTAL PROTEIN,[4],6.2 G/DL
same,URIC ACID,[4],0.85 mg/dL
